Laboratory results: US9238040B2, “Chemoprevention of colorectal cancer by mesalamine/sulfasalazine” (RUTGERS, THE STATE UNIVERSITY OF NEW JERSEY, priority 2005, dated 2016)

Key:
LS180 cells = assay: Microarray analysis of gene expression in LS180 cells; format: cell-based, human; details: 200 mM, 4 hours and 24 hours, compared with 5-ASA untreated LS180 cells
TC22 = assay: FACS of TC22 expression in LS180 colon cancer cells (antibody TC22-4); format: cell-based, human; details: 4 hours, Serum Free Media
Protocol: Specific monoclonal antibodies, CG3 for hTM5 and TC22-4 for TC22 were used against the cells in a fluorescent activated cell sorter (FACS). Reverse transcriptase PCR (RT-PCR) was utilized to quantify the transcription of hTM5 and TC-22. […] Dishes were washed with 10 ml PBS 3 times. Cells were detached with 0.25% trypsin-EDTA and collected. All cells were >90% viable. The cells were washed and then fixed by using 4% paraformaldehyde for 5 minutes. Cells were washed 2 times. Cells were then resuspended and the first antibody was added: MOPC IgM(0.5 mg/mL) 1 μl (1:100), MOPCIgG(0.5 mg/mL) 1 μl (1:100), CG3 IgM(2.4 mg/mL) 1 μL of (2+3 μL Buffer) (1:250) for hTM5, TC22-4 IgG(30 mg/mL) 1 μL of (1+9 uL Buffer) (1:1000) for TC22. The suspension was incubated at 4° C. for 30 minutes, shaken and washed (2 times) with 30 vol. of PBS/0.5 BSA/2 mm EDTA. The second antibody was added: 1 μl tube (1:100) Cy2 (Cyanine)-conj. G-α-M IgM or Cy2 (Cyanine)-conj. G-α-M IgM, then incubated at 4° C. for 30 minutes, shaken and washed (2 times) with 100 vol. buffer 2 times. The cells were then resuspended in 1 ml wash buffer. FACS was used to detect hTM5 and TC22 expression within 1 hour. […] The graphs show the number of cells as a function of fluorescence intensity. LM1 represents the percent of cells present but not expressing TC22. LM2 represents the percent of cells containing TC22.

Compound: Nc1ccc(O)c(C(=O)O)c1 [5-ASA, 5-Aminosalicylic Acid]
- Number of genes down-regulated (LS180 cells): >385
- Number of genes up-regulated (LS180 cells): >194
- expression of TC22 (FACS, FIG. 1f) (TC22): reduced the expression of TC22
